According to patent US11690804B2, “Targeted delivery of therapeutic agents to human adipocytes” (AptamiR Therapeutics, Inc., priority 2018, dated 2023):
Square brackets hold non-standard residues; d marks the D form. Peptide text beside a SMILES is read from it. dTrp(2-Me) = Cc1[nH]c2ccccc2c1C[C@@H](N)C(=O)O

Key:
[1] = system: human subcutaneous adipocytes; assay: Transport of green fluorescent Hexarelin into primary cultures of human subcutaneous adipocytes (fluorescence microscopy); assay type: cell-based; settings: green fluorescent probe, primary culture
From the text: In vitro validation of HexamiRs targeted delivery of functional miRNAs: The ability of the HexamiRs to target and deliver ss-miRNA analogs to adipocytes will evaluated in a model of primary cultures of human subcutaneous adipocytes. The first experimental step was to confirm that Hexarelin is efficiently transported into human mature adipocytes, using an in vitro protocol of primary cultures of human subcutaneous adipocytes. To test this, hexarelin labeled with a green fluorescent probe was incubated with cultured adipocytes.

[2] = system: MKR insulin-resistant mice; settings: cited from earlier work
[3] = system: human subcutaneous adipocytes; assay: Transport of green fluorescent labeled fatty acids into primary cultures of human subcutaneous adipocytes (fluorescence microscopy); assay type: cell-based; settings: green fluorescent probe, primary culture
Procedure: In vitro validation of AdipomiRs targeted delivery of functional miRNAs: The ability of the AdipomiRs to target and deliver ss-miRNA analogs to adipocytes was evaluated in a model of primary cultures of human subcutaneous adipocytes. The first experimental step was to confirm that fatty acids are efficiently transported into human mature adipocytes, using the inventor's in vitro protocol of primary cultures of human subcutaneous adipocytes. To test this, fatty acids such as palmitic and […] acids were labeled with a green fluorescent probe and incubated with cultured adipocytes.

SMILES	transport of labeled hexarelin into the cytoplasm of human adipocytes [1]	glucose and insulin intolerance [2]	plasma and liver triglycerides [2]	transport of labeled fatty acids by human adipocytes [3]
Cc1[nH]c2ccccc2c1C[C@@H](NC(=O)[C@@H](N)Cc1cnc[nH]1)C(=O)N[C@@H](C)C(=O)N[C@@H](Cc1c[nH]c2ccccc12)C(=O)N[C@H](Cc1ccccc1)C(=O)N[C@@H](CCCCN)C(N)=O [Hexarelin, His-D-2-Me-Trp-Ala-Trp-D-Phe-Lys-NH2] (H-H[dTrp(2-Me)]AW[dF]K-NH2)	very efficiently transported	significantly improved	decreased	–
CCCCCCCCCCCCCCCC(=O)O [palmitic acid, Palmitic Acid]	–	–	–	very efficiently transported
